The test system of this assay is Aβ42 production. The experiment in a line: Quantification of Aβ peptide in culture of neurons from rat fetus brain (Aβ ELISA). The format is cell-based. The conditions noted are these: rat primary cortical neuronal culture (embryonic day 18 Wistar rats), medium collected three days after addition of the compound, Aβx-42 ELISA, read-out: Aβ42 production reducing effect IC50. As to the method:
Quantification of Aβ Peptide in Culture of Neurons from Rat Fetus Brain
(1) Rat Primary Neuronal Culture
Primary neuronal cultures were prepared from the cerebral cortex of embryonic day 18 Wistar rats (Charles River Japan, Yokohama, Japan). Specifically, the embryos were aseptically removed from pregnant rats under ether anesthesia. The brain was isolated from the embryo and immersed in an ice-cold L-15 medium (such as Invitrogen Corp. Cat #11415-064, Carlsbad, Calif., USA, or SIGMA L1518). The cerebral cortex was collected from the isolated brain under a stereoscopic microscope. The cerebral cortex fragments collected were enzymatically treated in an enzyme solution containing 0.25% trypsin (Invitrogen Corp. Cat #15050-065, Carlsbad, Calif., USA) and 0.01% DNase (Sigma D5025, St. Louis, Mo., USA) at 37° C. for 30 minutes to disperse the cells. Here, the enzymatic reaction was stopped by adding inactivated horse serum to the solution. The enzymatically treated solution was centrifuged at 1,500 rpm for five minutes to remove the supernatant. 5 to 10 mL of a medium was added to the resulting cell mass. Neurobasal medium (Invitrogen Corp. Cat #21103-049, Carlsbad, Calif., USA) supplemented with 2% B27 supplement (Invitrogen Corp. Cat #17504-044, Carlsbad, Calif., USA), 25 μM 2-mercaptoethanol (2-ME, WAKO Cat #139-06861, Osaka, Japan), 0.5 mM L-glutamine (Invitrogen Corp. Cat #25030-081, Carlsbad, Calif., USA), and Antibiotics-Antimycotics (Invitrogen Corp. Cat #15240-062, Carlsbad, Calif., USA) was used as the medium (Neurobasal/B27/2-ME). However, the above Neurobasal medium not supplemented with 2-ME (Neurobasal/B27) was used for the assay. The cells were redispersed by mild pipetting of the cell mass to which the medium was added. The cell dispersion was filtered through a 40-μm nylon mesh (Cell Strainer, Cat #35-2340, Becton Dickinson Labware, Franklin Lakes, N.J., USA) to remove the remaining cell mass, and thus a neuronal cell suspension was obtained. The neuronal cell suspension was diluted with the medium and then plated in a volume of 100 μL/well at an initial cell density of 5×10^5 cells/cm^2 in a 96-well polystyrene culture plate pre-coated with poly-L or D-lysine (Falcon Cat #35-3075, Becton Dickinson Labware, Franklin Lakes, N.J., USA coated with poly-L-lysine using the method shown below, or BIOCOAT™ cell environments Poly-D-lysine cell ware 96-well plate, Cat #35-6461, Becton Dickinson Labware, Franklin Lakes, N.J., USA). Poly-L-lysine coating was carried out as follows. 100 μg/mL of a poly-L-lysine (SIGMA P2636, St. Louis, Mo., USA) solution was aseptically prepared with a 0.15 M borate buffer (pH 8.5). […]
On the technique in general: An ELISA detects its analyte on a solid surface through an enzyme-linked reagent.

Like-named read-outs stand apart in the source and are kept apart here.

By IC50 is commonly meant the concentration that inhibits the measured activity by half. Turning to `NC1=N[C@@]2(c3cc(NC(=O)c4ccc(Cl)cn4)ccc3F)CCCCC[C@H]2CS1` (single isomer, unassigned) [Example 248, N-[3-((4aR*,9aS*)-2-amino-4,4a,5,6,7,8,9,9a-octahydrocyclohepta[d][1,3]thiazin-9a-yl)-4-fluorophenyl]-5-chloropyridine-2-carboxamide], the IC50 (Neuron, 72 h) worked out at 0.016 µM. In the case of `NC1=N[C@@]2(c3cc(NC(=O)c4ncccc4F)ccc3F)CCCCC[C@H]2CS1` [Example 251], the IC50 amounted to 0.12 µM. On the same count and under the same terms, the same measure for `NC1=N[C@@]2(c3cc(NC(=O)c4ncccc4C(F)(F)F)ccc3F)CCCCC[C@H]2CS1` [Example 252]: 0.187 µM. On to `NC1=N[C@@]2(c3cc(NC(=O)c4ncccc4Br)ccc3F)CCCCC[C@H]2CS1` [Example 253], for which the IC50 worked out at 0.171 µM.

Values taken from patent US8946211B2, “Fused aminodihydrothiazine derivatives” (Eisai R&D Management Co., Ltd., priority 2008, dated 2015).
